Results: patent publication US12195455B2, “Succinate and fumarate acid addition salts of piperazine derivatives” (Asceneuron SA, priority 2018, dated 2025)

Protocol: The free base Example 35 (10 mg) was weighed into glass vials and water was added in 100 μL portions up to 1 mL then 0.5 mL portions thereafter. Solubility was assessed visually following a brief period of equilibration.

visual aqueous solubility: < 1250 µg/mL
SMILES: C[C@@H](c1ccc2scnc2c1)N1CCN(c2ncc([S@@](C)(=N)=O)cn2)CC1 (single isomer, unassigned) [Example 35]
